This passage reports Km results from publication PMC12473897 (Toxics, 2025).

The structures appear in SMILES notation.

The test system of the test is T1, Coptodon zillii liver rhodanese.
T1 construct: gene tst
The settings on record: co-substrate KCN; standard assay borate pH 9.4, 37 °C; 5-50 mM range.

As for `O=S(O)(O)=S` [sodium thiosulphate], the Michaelis-Menten constant (Km) came out at 20 mM.

In general, Km refers to the substrate concentration at which the rate is half of its maximum.
